Test results taken from ChEMBL document CHEMBL3885881, “DrugMatrix”.

Species on record: Rattus norvegicus
Experiment: DrugMatrix - Regimen: Daily Repeat
Assay type: toxicity, organism-based, Sprague-Dawley
Parameters: regimen Daily Repeat, gender Male, age 6-8 weeks
Conditions: in vivo, po, route oral GAVAGE, […]; for ABSOLUTE BASOPHIL / ABSOLUTE EOSINOPHIL / ABSOLUTE LYMPHOCYTE / ABSOLUTE MONOCYTE / ABSOLUTE SEGMENTED NEUTROPHIL / BASOPHIL / EOSINOPHIL / ERYTHROCYTE COUNT / HEMATOCRIT / HEMOGLOBIN / LEUKOCYTE COUNT / LYMPHOCYTE / MEAN CORPUSCULAR HEMOGLOBIN / MEAN CORPUSCULAR HEMOGLOBIN CONCENTRATION / MEAN CORPUSCULAR VOLUME / MONOCYTE / NEUTROPHIL / NUCLEATED RED BLOOD CELLS / PLATELET COUNT: tissue Blood; for ALANINE AMINOTRANSFERASE / ALBUMIN / ALKALINE PHOSPHATASE / ASPARTATE AMINOTRANSFERASE / BLOOD UREA NITROGEN / CARBON DIOXIDE / CHLORIDE / CHOLESTEROL / CREATINE PHOSPHOKINASE / CREATININE / GLUCOSE / LACTATE DEHYDROGENASE / LIPASE / PHOSPHORUS / POTASSIUM / SODIUM / TOTAL BILIRUBIN / TOTAL PROTEIN / URIC ACID: tissue Plasma
[1] = 0 mg/kg, 72 h, dose level Control, time 3 day
[2] = 0 mg/kg, 120 h, dose level Control, time 5 day
[3] = 0 mg/kg, dose level Control, time 28 day
[4] = 20 mg/kg, 72 h, dose level Low, time 3 day

Q: Which “ABSOLUTE BASOPHIL” value [1] does the source give for `CCCCCCCCCc1ccc(O)cc1` [4-NONYLPHENOL] here?
A: 0 CELLS/uL

Q: What about the “ABSOLUTE EOSINOPHIL” value [1] of the same compound?
A: 0 CELLS/uL

Q: What about the “ABSOLUTE LYMPHOCYTE” value [1] of the same compound?
A: 11091.17 CELLS/uL

Q: What about the “ABSOLUTE MONOCYTE” value [1] of the same compound?
A: 172.17 CELLS/uL

Q: What about the “ABSOLUTE SEGMENTED NEUTROPHIL” value [1] of the same compound?
A: 1186.67 CELLS/uL

Q: What about the BASOPHIL [1] of the same compound?
A: 0%

Q: And the EOSINOPHIL [1]?
A: 0%

Q: And the “ERYTHROCYTE COUNT” value [1]?
A: 5.87 x10E6/uL

Q: What about the HEMATOCRIT [1] of the same compound?
A: 36.87%

Q: And the HEMOGLOBIN [1]?
A: 14.03 G/DL

Q: And the “LEUKOCYTE COUNT” value [1]?
A: 12.45 x10E3/uL

Q: And the LYMPHOCYTE [1]?
A: 88.67%

Q: And the “MEAN CORPUSCULAR HEMOGLOBIN” value [1]?
A: 23.93 pg

Q: And the “MEAN CORPUSCULAR HEMOGLOBIN CONCENTRATION” value [1]?
A: 38.1 G/DL

Q: What about the “MEAN CORPUSCULAR VOLUME” value [1] of the same compound?
A: 62.73 fL

Q: What about the MONOCYTE [1] of the same compound?
A: 1.5%

Q: What about the NEUTROPHIL [1] of the same compound?
A: 9.83%

Q: What about the “NUCLEATED RED BLOOD CELLS” value [1] of the same compound?
A: 0 /100WBC

Q: And the “PLATELET COUNT” value [1]?
A: 1150.33 x10E3/uL

Q: And the “ALANINE AMINOTRANSFERASE” value [1]?
A: 67.17 u/L

Q: What about the ALBUMIN [1] of the same compound?
A: 4.03 G/DL

Q: And the “ALKALINE PHOSPHATASE” value [1]?
A: 462.5 u/L

Q: And the “ASPARTATE AMINOTRANSFERASE” value [1]?
A: 88 u/L

Q: What about the “BLOOD UREA NITROGEN” value [1] of the same compound?
A: 13.17 mg/dL

Q: What about the “CARBON DIOXIDE” value [1] of the same compound?
A: 29.33 mmol/L

Q: What about the CHLORIDE [1] of the same compound?
A: 101 MEQ/L

Q: And the CHOLESTEROL [1]?
A: 69.17 mg/dL

Q: What about the “CREATINE PHOSPHOKINASE” value [1] of the same compound?
A: 292.5 u/L

Q: What about the CREATININE [1] of the same compound?
A: 0.17 mg/dL

Q: What about the GLUCOSE [1] of the same compound?
A: 167.5 mg/dL

Q: What about the “LACTATE DEHYDROGENASE” value [1] of the same compound?
A: 198.5 u/L

Q: And the LIPASE [1]?
A: 10.67 u/L

Q: And the PHOSPHORUS [1]?
A: 11.73 mg/dL

Q: And the POTASSIUM [1]?
A: 5.91 MEQ/L

Q: And the SODIUM [1]?
A: 143.3 MEQ/L

Q: What about the “TOTAL BILIRUBIN” value [1] of the same compound?
A: 0.18 mg/dL

Q: And the “TOTAL PROTEIN” value [1]?
A: 5.7 G/DL

Q: What about the “URIC ACID” value [1] of the same compound?
A: 1.3 mg/dL

Q: And the “ABSOLUTE BASOPHIL” value [2]?
A: 0 CELLS/uL

Q: And the “ABSOLUTE EOSINOPHIL” value [2]?
A: 64.33 CELLS/uL

Q: What about the “ABSOLUTE LYMPHOCYTE” value [2] of the same compound?
A: 12494.67 CELLS/uL

Q: What about the “ABSOLUTE MONOCYTE” value [2] of the same compound?
A: 117 CELLS/uL

Q: And the “ABSOLUTE SEGMENTED NEUTROPHIL” value [2]?
A: 1340.67 CELLS/uL

Q: What about the “NUCLEATED RED BLOOD CELLS” value [2] of the same compound?
A: 0 /100WBC

Q: And the “CARBON DIOXIDE” value [2]?
A: 29.17 mmol/L

Q: And the “LACTATE DEHYDROGENASE” value [2]?
A: 229.17 u/L

Q: What about the LIPASE [2] of the same compound?
A: 10.83 u/L

Q: And the “URIC ACID” value [2]?
A: 1.55 mg/dL

Q: What about the BASOPHIL [3] of the same compound?
A: 0.42%

Q: What about the EOSINOPHIL [3] of the same compound?
A: 0.58%

Q: And the “ERYTHROCYTE COUNT” value [3]?
A: 8.06 x10E6/uL

Q: What about the HEMATOCRIT [3] of the same compound?
A: 48.44%

Q: And the HEMOGLOBIN [3]?
A: 16.34 G/DL

Q: What about the “LEUKOCYTE COUNT” value [3] of the same compound?
A: 13.04 x10E3/uL

Q: What about the LYMPHOCYTE [3] of the same compound?
A: 85.12%

Q: And the “MEAN CORPUSCULAR HEMOGLOBIN” value [3]?
A: 20.26 pg

Q: And the “MEAN CORPUSCULAR HEMOGLOBIN CONCENTRATION” value [3]?
A: 33.74 G/DL

Q: What about the “MEAN CORPUSCULAR VOLUME” value [3] of the same compound?
A: 60.1 fL

Q: And the MONOCYTE [3]?
A: 1.44%

Q: And the NEUTROPHIL [3]?
A: 11.28%

Q: What about the “PLATELET COUNT” value [3] of the same compound?
A: 1226 x10E3/uL

Q: What about the “ALANINE AMINOTRANSFERASE” value [3] of the same compound?
A: 28.6 u/L

Q: And the ALBUMIN [3]?
A: 3.94 G/DL

Q: And the “ALKALINE PHOSPHATASE” value [3]?
A: 254.6 u/L

Q: And the “ASPARTATE AMINOTRANSFERASE” value [3]?
A: 67.8 u/L

Q: What about the “BLOOD UREA NITROGEN” value [3] of the same compound?
A: 10.4 mg/dL

Q: What about the CHLORIDE [3] of the same compound?
A: 104.6 MEQ/L

Q: What about the CHOLESTEROL [3] of the same compound?
A: 57.6 mg/dL

Q: And the “CREATINE PHOSPHOKINASE” value [3]?
A: 224.8 u/L

Q: What about the CREATININE [3] of the same compound?
A: 0.4 mg/dL

Q: And the GLUCOSE [3]?
A: 140.6 mg/dL

Q: And the PHOSPHORUS [3]?
A: 10.66 mg/dL

Q: And the POTASSIUM [3]?
A: 6.58 MEQ/L

Q: And the SODIUM [3]?
A: 148.6 MEQ/L

Q: What about the “TOTAL BILIRUBIN” value [3] of the same compound?
A: 0.24 mg/dL

Q: And the “TOTAL PROTEIN” value [3]?
A: 6.64 G/DL

Q: What about the “ABSOLUTE BASOPHIL” value [4] of the same compound?
A: 0 CELLS/uL

Q: And the “ABSOLUTE EOSINOPHIL” value [4]?
A: 45.67 CELLS/uL

Q: And the “ABSOLUTE LYMPHOCYTE” value [4]?
A: 11853.67 CELLS/uL

Q: And the “ABSOLUTE MONOCYTE” value [4]?
A: 45.67 CELLS/uL

Q: And the “ABSOLUTE SEGMENTED NEUTROPHIL” value [4]?
A: 988.33 CELLS/uL

Q: And the BASOPHIL [4]?
A: 0%

Q: And the EOSINOPHIL [4]?
A: 0.33%

Q: And the “ERYTHROCYTE COUNT” value [4]?
A: 5.99 x10E6/uL

Q: What about the HEMATOCRIT [4] of the same compound?
A: 37.03%

Q: And the HEMOGLOBIN [4]?
A: 14.3 G/DL

Q: And the “LEUKOCYTE COUNT” value [4]?
A: 12.93 x10E3/uL

Q: And the LYMPHOCYTE [4]?
A: 91.67%

Q: And the “MEAN CORPUSCULAR HEMOGLOBIN” value [4]?
A: 23.9 pg

Q: And the “MEAN CORPUSCULAR HEMOGLOBIN CONCENTRATION” value [4]?
A: 38.6 G/DL

Q: What about the “MEAN CORPUSCULAR VOLUME” value [4] of the same compound?
A: 61.9 fL

Q: And the MONOCYTE [4]?
A: 0.33%

Q: What about the NEUTROPHIL [4] of the same compound?
A: 7.67%

Q: And the “NUCLEATED RED BLOOD CELLS” value [4]?
A: 0 /100WBC

Q: What about the “PLATELET COUNT” value [4] of the same compound?
A: 1126 x10E3/uL

Q: And the “ALANINE AMINOTRANSFERASE” value [4]?
A: 75.33 u/L

Q: What about the ALBUMIN [4] of the same compound?
A: 3.8 G/DL

Q: What about the “ALKALINE PHOSPHATASE” value [4] of the same compound?
A: 451.33 u/L

Q: What about the “ASPARTATE AMINOTRANSFERASE” value [4] of the same compound?
A: 100 u/L

Q: What about the “BLOOD UREA NITROGEN” value [4] of the same compound?
A: 13 mg/dL

Q: And the “CARBON DIOXIDE” value [4]?
A: 24.67 mmol/L

Q: What about the CHLORIDE [4] of the same compound?
A: 102.67 MEQ/L

Q: What about the CHOLESTEROL [4] of the same compound?
A: 62.67 mg/dL

Q: And the “CREATINE PHOSPHOKINASE” value [4]?
A: 371 u/L

Q: And the CREATININE [4]?
A: 0.19 mg/dL

Q: And the GLUCOSE [4]?
A: 168.67 mg/dL

Q: And the “LACTATE DEHYDROGENASE” value [4]?
A: 255.33 u/L

Q: What about the LIPASE [4] of the same compound?
A: 9.67 u/L

Q: What about the PHOSPHORUS [4] of the same compound?
A: 11.97 mg/dL

Q: What about the POTASSIUM [4] of the same compound?
A: 5.3 MEQ/L

Q: And the SODIUM [4]?
A: 143.8 MEQ/L

Q: And the “TOTAL BILIRUBIN” value [4]?
A: 0.2 mg/dL

Q: And the “TOTAL PROTEIN” value [4]?
A: 5.33 G/DL

Q: And the “URIC ACID” value [4]?
A: 1.77 mg/dL
